The target in assay [1] is T1, Sphingosine 1-phosphate receptor 1 (Homo sapiens, UniProt P21453). In words: Detecting Inhibition of cAMP Production. The protocol:
Agonist-promoted G-protein responses were determined by measuring changes in intracellular cAMP using the HTRF cAMP HiRange kit (CisBio, Cat #: 62AM6PEJ) based on time-resolved fluorescence resonance energy transfer (TR-FRET) technology. […] Following a 30-minute incubation at 37 C. and 5% CO2 in a humidified CO2 and temperature-controlled incubator, the components of the cAMP HiRange kit were added as per the manufacturer's instructions. After an hour incubation at room temperature, plates were analyzed by a BMG PheraStar microplate reader.

Assay [2] has as its target T1, Sphingosine 1-phosphate receptor 1. As to the kind of experiment: Beta-Arrestin2 Recruitment Assay. The protocol:
Agonist-promoted β-arrestin2 recruitment to the sphingosine-1-phosphate 1 receptor was determined using the β-arrestin PathHunter ) Detection kit (DiscoverX Corporation, Cat #: 93-0001). […] In cells that stably express these fusion proteins, stimulation with a cognate agonist results in the interaction of 0-arrestin2 and the Prolink -tagged GPCR. This allows the complementation of the two β-galactosidase fragments and results in the formation of a functional enzyme with β-galactosidase activity. […] Following a 60 minute incubation at 37 C. and 5% CO2 in a humidified CO2 and temperature-controlled incubator, the components of the β-arrestin PathHunter Detection kit were added as per the manufacturer's instructions. After an hour incubation at room temperature, plates were analyzed by a BMG PheraStar microplate reader.
(Recruitment of arrestin is a read-out of receptor activation apart from second messengers.)

T1 sequence (P21453 whole entry): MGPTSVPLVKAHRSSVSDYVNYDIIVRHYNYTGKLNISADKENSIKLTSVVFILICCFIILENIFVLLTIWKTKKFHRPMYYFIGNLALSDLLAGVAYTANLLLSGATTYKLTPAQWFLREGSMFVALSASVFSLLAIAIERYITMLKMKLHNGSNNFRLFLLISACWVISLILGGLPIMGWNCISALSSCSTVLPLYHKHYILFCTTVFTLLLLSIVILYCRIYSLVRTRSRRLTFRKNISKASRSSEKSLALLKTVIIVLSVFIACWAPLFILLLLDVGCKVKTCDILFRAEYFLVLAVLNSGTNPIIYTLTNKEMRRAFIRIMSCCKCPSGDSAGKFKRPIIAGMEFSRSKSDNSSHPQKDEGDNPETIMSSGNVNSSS

`CC(C)N1NNc2cc(-c3nc(-c4cn[nH]c4)no3)ccc21` [US11912693, Compound 646]: the EC50 in assay [1] is greater than 0.316 µM; in assay [2], greater than 10 µM.

`Cc1ccccc1-c1nc(-c2ccc3c(c2)NNN3CC(C)(C)O)no1` [US11912693, Compound 593]: the values for the EC50 in assay [1] and in assay [2] were less than 0.316 µM and less than 10 µM, respectively.

As for `Cc1cc(-c2noc(-c3ccc4c(c3)NNN4CC(C)(C)O)n2)c(C)o1` [US11912693, Compound 493], the EC50 in assay [1] was greater than 0.316 µM; in assay [2], greater than 10 µM.

`Cc1cc(-c2noc(-c3ccc4c(c3)NNN4C(C)C)n2)c(C)o1` [US11912693, Compound 490]: the figures for the EC50 in assay [1] and in assay [2] were less than 0.316 µM and less than 10 µM, respectively.

With `Cc1cc(-c2noc(-c3ccc4c(c3)nnn4C3CCCC3)n2)ccn1` [US11912693, Compound 77], the results for the EC50 in assay [1] and in assay [2] were greater than 0.316 µM and greater than 10 µM, respectively.

As to `Cc1occc1-c1noc(-c2ccc3c(c2)NNN3C(C)C)n1` [US11912693, Compound 491], the EC50 in assay [1] was less than 0.316 µM; in assay [2], less than 10 µM.

`CC(C)N1NNc2cc(-c3nc(-c4sccc4Cl)co3)ccc21` [US11912693, Compound 463]: the EC50 is less than 0.316 µM in assay [1] and less than 10 µM in assay [2].

As for `CC(C)n1nnc2cc(-c3nc(-c4ccccc4Cl)co3)ccc21` [US11912693, Compound 163], the EC50 was less than 0.316 µM in assay [1] and less than 10 µM in assay [2].

In the case of `CC(C)N1NNc2cc(-c3nc(-c4cccnc4Cl)no3)ccc21` [US11912693, Compound 499], the EC50 in assay [1] is less than 0.316 µM; in assay [2], less than 10 µM.

As usually defined, the EC50 is the concentration giving half of the maximal effect.

(Values after BindingDB's records for patent US11912693 (Trevena, 2024).)
